# How the values were obtained:
# [1] = test system: cockroaches Blattella germanica; test: Test Example: spray test on hidden cockroaches, mortality rate; type: in vivo; details: 4.2 mL test formulation solution (ingredient concentrations % (W/V) per Table 1, in diethylene glycol monomethylether) sprayed in 70 cm cubic glass box; 10 cockroaches; transferred after 10 minutes; counted after 3 days; average of duplicate
# From the text: Suitable amounts of 4-methoxymethyl-2,3,5,6-tetrafluorobenzyl(1R)-trans-3-(2-cyano-1-propenyl)-2,2-dimethylcyclopropanecarboxylate (isomer ratio, based on double bond, Z/E: approximately 2/1) (hereinafter, referred to as compound A) and/or clothianidin (manufactured by Sumika Takeda Agrochemicals Co.) are mixed with diethylene glycol monomethylether, to give a test formulation solution containing the compound A and/or clothianidin at particular concentrations (see Table 1).
# (§1) A triangular prism wooden container (regular triangle having a base of 3.5 cm and a height of 15 cm) containing 10 cockroaches Blattella germanica (5 males and 5 females) hidden therein was placed in the bottom center of a cubic glass box having a base of 70 cm square. 4.2 Milliliters of the test formulation solution was sprayed on the glass box with a spray gun. In 10 minutes after the spraying, the cockroaches were transferred into a plastic container containing food and water and left there for 3 days. The number of live cockroaches was then counted, to give a mortality rate.
# [2] = test system: cockroaches Blattella germanica; test: Referential Test Example: spray test on hidden cockroaches, mortality rate; type: in vivo; details: 4.2 mL test formulation solution (ingredient concentrations % (w/v) per Table 2, in diethylene glycol monomethylether) sprayed in 70 cm cubic glass box; 10 cockroaches; transferred after 10 minutes; counted after 3 days; average of duplicate
# From the text: Suitable amounts of the compound A and either (E)-N^1-[(6-chloro-3-pyridyl)methyl]-N^2-cyano-N^1-methylacetamidine (general name: acetamiprid, hereinafter, referred to as N-cyanoacetamidine compound) or 1-(6-chloro-3-pyridylmethyl)-N-nitroimidazolidin-2-ylidene amine (general name: imidacloprid, hereinafter referred to as nitroimidazoline compound) are mixed with diethylene glycol monomethylether, to give test formulation solutions containing the compound A and either the N-cyano acetamidine or nitroimidazoline compound at particular concentrations (see Table 2).
# as §1, with “cm.” for “cm square.”
Compound,Mortality rate (%) [1] [%],Mortality rate (%) [2] [%]
"COCc1c(F)c(F)c(COC(=O)[C@@H]2[C@@H](C=C(C)C#N)C2(C)C)c(F)c1F [compound 7, 4-methoxymethyl-2,3,5,6-tetrafluorobenzyl(1R)-trans-3-(2-cyano-1-propenyl)-2,2-dimethylcyclopropanecarboxylate]",5,5
"CN/C(=N\[N+](=O)[O-])NCc1cnc(Cl)s1 [compound 8, 1-(2-chloro-1,3-thiazolyl)methyl-3-methyl-2-nitroguanidine]",35,–
"C/C(=N\C#N)N(C)Cc1ccc(Cl)nc1 [compound 12, (E)-N^1-[(6-chloro-3-pyridyl)methyl]-N^2-cyano-N^1-methylacetamidine]",–,5
"O=[N+]([O-])NC1=NCCN1Cc1ccc(Cl)nc1 [compound 13, 1-(6-chloro-3-pyridylmethyl)-N-nitroimidazolidin-2-ylidene amine]",–,15

# Source: US8114897B2, “Pesticidal composition and method for controlling a pest” (priority 2007, dated 2012)
